From article PMC12264554, “Application of preclinical absorption, distribution, metabolism, elimination in vitro techniques for the characterization and compound library optimization of novel antibiotic gallium salophen” (Drug Metabolism and Disposition, 2025)
Read-outs that look alike come from different tables or passages of the source.

Columns and labels:
[1] = calculated B/P, cited from earlier work
HasA = HasA (Pseudomonas aeruginosa, UniProt G3XD33); test: Kd determination by fluorescence quenching of apo-HasAp; settings: read-out: HasA Kd; apo-HasAp 1 μM, 20 mM sodium phosphate pH 7.4, 25 °C, one-site binding fit
Description: Wild-type, full-length HasAp was prepared from freshly transformed Escherichia coli BL21(DE3) competent cells as previously described in 4 L of M9 media. Cell pellets were resuspended and lysed with an LM-20 microfluidizer at 18,000 psi. Lysate was clarified by centrifugation and applied to a Q-Sepharose column. HasAp was eluted over a gradient from 20 to 600 mM NaCl in 20 mM Tris-HCl (pH 7.5), and desired fractions determined by SDS-PAGE were pooled. Apo-HasAp was further purified on a Butyl Sepharose Fast Flow column equilibrated with 50 mM sodium phosphate buffer with 0.7 M ammonium sulfate (pH 7.0). Holo-HasAp and other proteins eluted within 2–3 bed volumes of 50 mM sodium phosphate containing 0.5 M ammonium sulfate. Apo-HasAp was then eluted with a linear gradient of sodium phosphate buffer (50–20 mM) containing ammonium sulfate (0.5–0 M). Fractions were analyzed again by SDS-PAGE, and the apo-HasAp was pooled, concentrated (Amicon stirred cell with Ultracel 10 kDa filter), and exchanged into 20 mM sodium phosphate buffer.
Binding affinities were determined using a BioTek Synergy H1 microplate reader in a black 96-well plate. Compounds were solvated in H2O in serial dilutions (100–0.39 μM). One micromolar solution of apo-HasAp 20 mM sodium phosphate buffer (pH 7.4, 25 °C) was titrated into the ligand of interest. Emission spectra were recorded (300–500 nm) after excitation at 280 nm. The decrease in maximum emission was plotted against the ligand concentration (accounting for dilution) and fit to one-site binding using GraphPad Prism v10.

[2] = Experimental LogP by reverse-phase HPLC method; format: physicochemical; settings: extrapolated log kw
From the text: LogP was experimentally determined using previously published reverse-phase high-performance liquid chromatography method, and this workflow was adapted using instrumentation described in the previous LC-MS/MS analysis section ([Coutinho et al, 2023]). Briefly, analogs were eluted using isocratic flow with an increasing percentage of organic solvent from 55% to 90% in increments of 5%. The change in the log of the retention factor, log k, was plotted against the fraction of organic solvent. This allowed for extrapolation to the y-intercept, which is when the fraction of organic in the system is zero, or log kw. The same workflow was applied to known compounds with a published logP value to establish a relationship between logP and log kw. This ratio was used to calculate the experimental logP from the log kw of the test compounds. The in silico prediction of logP values was obtained using an online calculator by Molinspiration Cheminformatics (molinspiration.com).

Caco-2 cells = test: Caco-2 permeability screening; format: in vitro ADME; settings: 20 μM, 30 and 60 min, average ± SEM
Description: (§1) Caco-2 cells were received from American Type Culture Collection and certified mycoplasma free. Cells were seeded on transwell plates (CoStar, growth area 0.33 cm^2/well, polycarbonate membrane, 0.33 μm pore size) between passage 20 and 27 and then analyzed between 21 and 25 days after wells were seeded to ensure enterocyte-like differentiation. Before assessing permeability, cells were washed once with Hank’s Balanced Salt Solution buffer, pH 7.4, and then incubated at 37 °C for 30 minutes. Transepithelial electrical resistance (TEER) was measured after equilibration before the experiment using an epithelial volt-ohmmeter (EVOM, World Precision Instruments), and cells were used if TEER > 250 Ω × cm^2. Cells were dosed to measure permeability from basolateral and apical sides at a concentration of 20 μM of test compound and 50 μM of Lucifer yellow. Lucifer yellow was used as a “zero permeability” marker to monitor the integrity of cell barrier. Samples were taken at 0 and 60 minutes from the donor side, and samples were taken at 30 and 60 minutes from the receiver side; media was replenished after the 30-minute sample was taken from both chambers. A calibration curve was prepared by serial dilution using the dosing solution in a 1:5 dilution. […] Samples were prepared for LC-MS/MS analysis by taking 100 μL of sample, adding 1 μM internal standard (GaSal-4 or GaSal-5), and crashing with 400 μL of methanol. Samples were centrifuged at 3000 rpm at 4 °C for 30 minutes, 200 μL of supernatant was transferred to a new plate, and 100 μL of water was added to each sample. Samples were vortexed and analyzed by LC-MS/MS as described earlier. […] To preliminarily evaluate organic cation transporter 1 (OCT1) or P-glycoprotein (P-gp)-dependent transport, transport studies were conducted with and without a 1 μM “inhibitor cocktail” alongside GaSal. […] The Papp for basolateral to apical, Papp apical to basolateral, and efflux ratio were reported for each compound. In order to calculate Papp, the concentration in the sampled time point was determined from the calibration curve and then converted to μg based on the volume of the chamber (0.2 mL for apical, 1.0 mL for basolateral). […] The calculation of Papp was determined using eq. […] Data are presented as the average ± SEM for each compound analyzed as n = 3 on 2 different days with 2 different cell line passages, for n = 6 total. GaSal is n = 3 on 3 different cell line passages since this was used as a test compound for the inhibition cocktail experiments.

[3] = RBC/PL partitioning equilibrium in whole blood; settings: 2 hours, LC-MS/MS (ICP-MS for Ga^3+); for K2EDTA KRBC/PL: pooled K2EDTA whole blood; for Heparin KRBC/PL: pooled sodium heparin whole blood
Description: The mixtures were digested at 80 °C for 4 hours and further diluted to a concentration of 6% nitric acid. Gallium (Ga^71) in whole blood, PL, and RBC samples were quantified using an Agilent 7700x ICP-MS instrument (Agilent Technologies). Metal levels were detected using an Octopole Reaction System in He mode. Other ICP-MS parameters include an radio frequency power of 1500 W, on octupole radio frequency of 190 V, an octapole bias of –18 V, a helium gas flow of 4.3 mL/min, and an argon flow of 0.99 L/min. Samples were loaded through a 7700X peristaltic (with a speed of 0.1 rps) and a MicroMist nebulizer. A standard calibration curve was used to derive metal concentrations. The calibration standards from 0–250 ppb were prepared in 6% nitric acid using atomic absorption standards (Sigma). Data analysis and extraction were performed using Agilent’s MassHunter software version 5.1, specifically version D.01.01.
All LC-MS/MS grade solvents were purchased from ThermoFisher. Ammonium bicarbonate was purchased from Sigma Aldrich. Analysis was performed on a Waters I-Class ultra-performance liquid chromatography system connected with a Waters Xevo TQ-XS mass spectrometer. Ten millimolar ammonium bicarbonate, pH 9.4 was used for mobile phase A, and 100% methanol was used for mobile phase B. The column flow rate was set at 0.400 mL/min. Chromatographic separation was performed with a BEH C18 (2.1 × 50 mm, 1.7 μm) column (Waters). […] The total run time was 4 minutes. The column temperature was set to 60 °C, and the autosampler temperature was set to 15 °C. Washing parameters were 800 μL of weak needle wash (acetonitrile [ACN]:Water/50:50) and 1000 μL of strong needle wash (methanol:ACN:2-propanol:formic acid/30:30:40:0.5) after every injection. Transitions used to monitor all drugs in the study are shown in Supplemental Table 1.
Whole blood (either potassium EDTA [K2EDTA] or sodium heparin) was preincubated at 37 °C for 30 minutes before spiking with the analyte. GaSal-5 was made at a stock concentration of 100 μg/mL in water and then spiked at a high concentration (1 μg/mL) and low concentration (100 ng/mL) to determine whether equilibrium was concentration dependent. Samples were then aliquoted and stored in a water bath at 37 °C for 1, 2, 3, 4, and 8 hours or harvested immediately. PL was harvested from samples by centrifuging at 3000 rpm at 4 °C for 10 minutes. PL was transferred to a new tube and considered the PL fraction, whereas the rest of the matrix was considered the RBC fraction. Samples were then either analyzed by LC-MS/MS or ICP-MS. […] For selectivity lot analysis, whole blood from 3 male and 3 female donors were incubated for 2 hours and then analyzed with LC-MS/MS and ICP-MS at a single concentration of 1 μg/mL. Data are presented as average ± SEM, n = 3 per sample, per concentration. Significance was determined by using a paired t test for ICP-MS and LC-MS/MS data (the same sample, different method) or a 2-tailed Student’s t test for different anticoagulants.

[4] = Caco-2 permeability screening; format: in vitro ADME; settings: for Papp A→B / Papp B→A / efflux ratio at 20 µM: Caco-2, 20 μM; for Papp A→B / Papp B→A: 30 and 60 min, average ± SEM; for Papp A→B: read-out: Papp apical to basolateral; for Papp B→A: read-out: Papp basolateral to apical; for Papp: Caco-2, ranked by Papp against control drugs, read-out: Permeability ranking; for efflux ratio at 20 µM: human, read-out: Efflux ratio B to A/A to B
Description: as §1

Chain of HasA (G3XD33 entry or part of it): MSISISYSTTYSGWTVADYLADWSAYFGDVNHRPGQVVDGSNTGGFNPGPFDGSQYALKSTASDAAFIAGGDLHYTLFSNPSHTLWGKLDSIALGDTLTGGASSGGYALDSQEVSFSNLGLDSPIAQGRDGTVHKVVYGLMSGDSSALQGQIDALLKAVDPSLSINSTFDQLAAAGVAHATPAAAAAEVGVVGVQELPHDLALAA

In the case of `[As]` [Arsenic], the “KRBC/PL (B/P ratio)” value ([1]; ref (Cao et al., 2023)) is listed as 1.46.

For `[Cd]` [Cadmium], the “KRBC/PL (B/P ratio)” value ([1]; ref (Cao et al., 2023)) is listed as 4.28.

For `[Cr]` [Chromium], the “KRBC/PL (B/P ratio)” value ([1]; ref (Bonde & Christensen, 1991)) is listed as 1-3.

For `C[N+](C)(C)CCOc1ccc(/C=N/c2ccccc2/N=C/c2ccc(OCC[N+](C)(C)C)cc2O)c(O)c1.[Ga+3]` [GaSal-1], the Kd (HasA) was 2.5 ± 1.2 µM.

With `CN(C)CCOc1ccc(C=Nc2ccccc2N=Cc2ccc(OCCN(C)C)cc2O)c(O)c1.[Ga+3]` [GaSal-2] the logP [2] was 3.7, the Kd (HasA) was 1.2 ± 0.3 µM and the “Papp apical to basolateral” value (Caco-2 cells) was “Undetected”. For the same compound, the “Papp basolateral to apical” value (Caco-2 cells) was “Undetected”.

With `C/C(=N\c1ccccc1/N=C/c1ccc(OCC[N+](C)(C)C)cc1O)c1ccccc1O.[Ga+3]` [GaSal-6] the Kd (HasA) was 4 ± 2.8 µM.

In the case of `CC(=Nc1ccccc1N=Cc1ccc(OCCN(C)C)cc1O)c1ccccc1O.[Ga+3]` [GaSal-7], the logP [2] is reported as 3.27, the Kd (HasA) is reported as 5 ± 0.9 µM and the “Papp apical to basolateral” value (Caco-2 cells) is reported as “Undetected”. The “Papp basolateral to apical” value (Caco-2 cells) was “Undetected”.

With `CC(=Nc1ccccc1N=Cc1ccc(OCCN2CCOCC2)cc1O)c1ccccc1O.[Ga+3]` [GaSal-8] the logP [2] was 4.11, the Kd (HasA) was 5.2 ± 0.4 µM and the “K2EDTA KRBC/PL” value ([3]; 0.1 μg/mL) was 0.12 ± 0.09. For the same compound, the “Heparin KRBC/PL” value ([3]; 0.1 μg/mL) was 33.8 ± 5.7, the “K2EDTA KRBC/PL” value ([3]; 1 μg/mL) was 0.10 ± 0.05 and the “Heparin KRBC/PL” value ([3]; 1 μg/mL) was 37.4 ± 2.6. For the same compound, the Papp A→B [4] was < 0.01 ×10⁻⁶ cm/s, the Papp B→A [4] was 5.75 ± 0.37 ×10⁻⁶ cm/s and the Papp [4] was < 1.12 ×10⁻⁶ cm/s. The efflux ratio at 20 µM [4] was > 5.75.

With `CC(=Nc1ccccc1N=Cc1ccc(OCCC(=O)O)cc1O)c1ccccc1O.[Ga+3]` [GaSal-9] the logP [2] was 3.03, the Kd (HasA) was 0.33 ± 0.04 µM and the “K2EDTA KRBC/PL” value ([3]; 0.1 μg/mL) was 820 ± 59. For the same compound, the “K2EDTA KRBC/PL” value ([3]; 1 μg/mL) was 13745 ± 3800, the Papp A→B [4] was < 0.01 ×10⁻⁶ cm/s and the Papp B→A [4] was 22.5 ± 5.63 ×10⁻⁶ cm/s. For the same compound, the Papp [4] was < 1.12 ×10⁻⁶ cm/s and the efflux ratio at 20 µM [4] was > 22.5.

`COCCOCCOc1ccc(/C=N/c2ccccc2N=C(C)c2ccccc2O)c(O)c1.[Ga+3]` [GaSal-10] showed a Kd (HasA) of 3.4 ± 0.3 µM.
